Measured values: patent US11981658B2, “Substituted aminopyridine compounds as EGFR inhibitors” (YUHAN CORPORATION, priority 2021, dated 2024)
Where two headings read alike, the source gives them in different places.

Columns and labels:
EGFR L858R/T790M/C797S = EGFR L858R/T790M/C797S (Homo sapiens, UniProt P00533, C797S/L858R/T790M); assay: Biochemical EGFR kinase inhibition assay (Lance Ultra TR-FRET), triple mutant L858R/T790M/C797S
Outline: (§1)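 Kinase activity is measured by TR-FRET phosphopeptide detection. Compounds span 0.003 μM to 10 μM; the 1 h reaction at room temperature is quenched with EDTA, then labelled antibody (2 nM) is incubated 60 min before reading.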

EGFR wildtype (WT) = EGFR wildtype (WT) (Homo sapiens, UniProt P00533); assay: Biochemical EGFR kinase inhibition assay (Lance Ultra TR-FRET), wildtype
Outline: as §1

EGFR Del19/T790M/C797S = EGFR Del19/T790M/C797S (Homo sapiens, UniProt P00533, C797S/DEL746-750/T790M); assay: Biochemical EGFR kinase inhibition assay (Lance Ultra TR-FRET), triple mutant del19/T790M/C797S
Outline: as §1

EGFR Del19/C797S = EGFR Del19/C797S (Homo sapiens, UniProt P00533, C797S/DEL746-750); assay: Biochemical EGFR kinase inhibition assay (Lance Ultra TR-FRET), double mutant del19/C797S
Outline: as §1

EGFR L858R/C797S = EGFR L858R/C797S (Homo sapiens, UniProt P00533, C797S/L858R); assay: Biochemical EGFR kinase inhibition assay (Lance Ultra TR-FRET), double mutant L858R/C797S
Outline: as §1

[1] = IC50 L858R/T790M/C797S (nM), 100 μM ATP
[2] = IC50 Del19/T790M/C797S (nM), 100 μM ATP
[3] = IC50 Del19/C797S (nM), 100 μM ATP
[4] = IC50 L858R/C797S (nM), 100 μM ATP
[5] = Km ATP, read-out: IC50 L858R/T790M/C797S (nM) Km ATP
[6] = Km ATP, read-out: IC50 WT (nM) Km ATP
[7] = Km ATP, read-out: IC50 Del19/T790M/C797S (nM) Km ATP
[8] = Km ATP, read-out: IC50 Del19/C797S (nM) Km ATP
[9] = Km ATP, read-out: IC50 L858R/C797S (nM) Km ATP
[10] = Km ATP, read-out: IC50 L858R/T790M/C797S (nM), Km ATP
[11] = Km ATP, read-out: IC50 WT (nM), Km ATP
[12] = Km ATP, read-out: IC50 Del19/T790M/C797S (nM), Km ATP
[13] = Km ATP, read-out: IC50 Del19/C797S (nM), Km ATP
[14] = Km ATP, read-out: IC50 L858R/C797S (nM), Km ATP
[15] = ATP at Km, read-out: IC50 L858R/T790M/C797S (nM), Km ATP
[16] = ATP at Km, read-out: IC50 WT (nM), Km ATP
[17] = ATP at Km, read-out: IC50 Del19/T790M/C797S (nM), Km ATP
[18] = ATP at Km, read-out: IC50 Del19/C797S (nM), Km ATP
[19] = ATP at Km, read-out: IC50 L858R/C797S (nM), Km ATP

Chain of EGFR Del19/C797S (P00533 with tags, fused parts or gaps DEL746-750/C797S): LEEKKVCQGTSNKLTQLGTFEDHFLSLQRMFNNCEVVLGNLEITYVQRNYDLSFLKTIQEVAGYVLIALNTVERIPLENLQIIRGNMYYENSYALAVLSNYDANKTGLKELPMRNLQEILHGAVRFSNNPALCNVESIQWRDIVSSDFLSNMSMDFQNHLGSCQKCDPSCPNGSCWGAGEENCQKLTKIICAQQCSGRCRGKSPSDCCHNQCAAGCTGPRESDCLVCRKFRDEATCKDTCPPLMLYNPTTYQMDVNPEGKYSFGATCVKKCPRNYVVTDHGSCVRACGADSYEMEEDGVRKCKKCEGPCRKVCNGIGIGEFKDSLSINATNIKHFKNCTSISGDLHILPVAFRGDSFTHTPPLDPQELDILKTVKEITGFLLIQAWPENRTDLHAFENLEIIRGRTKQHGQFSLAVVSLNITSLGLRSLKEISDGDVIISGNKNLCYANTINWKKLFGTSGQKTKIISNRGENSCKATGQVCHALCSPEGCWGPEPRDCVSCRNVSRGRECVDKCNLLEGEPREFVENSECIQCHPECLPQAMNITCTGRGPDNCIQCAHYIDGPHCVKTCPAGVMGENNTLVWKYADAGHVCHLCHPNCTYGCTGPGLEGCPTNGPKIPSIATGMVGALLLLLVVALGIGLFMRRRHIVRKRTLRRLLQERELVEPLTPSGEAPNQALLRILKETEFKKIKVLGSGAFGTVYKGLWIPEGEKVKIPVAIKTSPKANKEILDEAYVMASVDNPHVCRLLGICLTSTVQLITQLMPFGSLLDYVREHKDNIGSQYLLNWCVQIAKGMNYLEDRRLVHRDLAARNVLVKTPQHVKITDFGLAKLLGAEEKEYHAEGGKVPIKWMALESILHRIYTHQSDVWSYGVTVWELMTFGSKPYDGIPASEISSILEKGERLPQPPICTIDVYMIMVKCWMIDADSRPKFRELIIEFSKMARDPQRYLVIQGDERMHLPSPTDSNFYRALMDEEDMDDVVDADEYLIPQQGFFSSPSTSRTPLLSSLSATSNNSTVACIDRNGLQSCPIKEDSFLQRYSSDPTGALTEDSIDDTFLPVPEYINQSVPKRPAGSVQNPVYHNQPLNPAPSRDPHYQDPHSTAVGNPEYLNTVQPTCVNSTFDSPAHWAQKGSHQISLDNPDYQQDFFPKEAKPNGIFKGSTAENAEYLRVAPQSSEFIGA
Chain of EGFR L858R/C797S (P00533 25-1210 C797S/L858R): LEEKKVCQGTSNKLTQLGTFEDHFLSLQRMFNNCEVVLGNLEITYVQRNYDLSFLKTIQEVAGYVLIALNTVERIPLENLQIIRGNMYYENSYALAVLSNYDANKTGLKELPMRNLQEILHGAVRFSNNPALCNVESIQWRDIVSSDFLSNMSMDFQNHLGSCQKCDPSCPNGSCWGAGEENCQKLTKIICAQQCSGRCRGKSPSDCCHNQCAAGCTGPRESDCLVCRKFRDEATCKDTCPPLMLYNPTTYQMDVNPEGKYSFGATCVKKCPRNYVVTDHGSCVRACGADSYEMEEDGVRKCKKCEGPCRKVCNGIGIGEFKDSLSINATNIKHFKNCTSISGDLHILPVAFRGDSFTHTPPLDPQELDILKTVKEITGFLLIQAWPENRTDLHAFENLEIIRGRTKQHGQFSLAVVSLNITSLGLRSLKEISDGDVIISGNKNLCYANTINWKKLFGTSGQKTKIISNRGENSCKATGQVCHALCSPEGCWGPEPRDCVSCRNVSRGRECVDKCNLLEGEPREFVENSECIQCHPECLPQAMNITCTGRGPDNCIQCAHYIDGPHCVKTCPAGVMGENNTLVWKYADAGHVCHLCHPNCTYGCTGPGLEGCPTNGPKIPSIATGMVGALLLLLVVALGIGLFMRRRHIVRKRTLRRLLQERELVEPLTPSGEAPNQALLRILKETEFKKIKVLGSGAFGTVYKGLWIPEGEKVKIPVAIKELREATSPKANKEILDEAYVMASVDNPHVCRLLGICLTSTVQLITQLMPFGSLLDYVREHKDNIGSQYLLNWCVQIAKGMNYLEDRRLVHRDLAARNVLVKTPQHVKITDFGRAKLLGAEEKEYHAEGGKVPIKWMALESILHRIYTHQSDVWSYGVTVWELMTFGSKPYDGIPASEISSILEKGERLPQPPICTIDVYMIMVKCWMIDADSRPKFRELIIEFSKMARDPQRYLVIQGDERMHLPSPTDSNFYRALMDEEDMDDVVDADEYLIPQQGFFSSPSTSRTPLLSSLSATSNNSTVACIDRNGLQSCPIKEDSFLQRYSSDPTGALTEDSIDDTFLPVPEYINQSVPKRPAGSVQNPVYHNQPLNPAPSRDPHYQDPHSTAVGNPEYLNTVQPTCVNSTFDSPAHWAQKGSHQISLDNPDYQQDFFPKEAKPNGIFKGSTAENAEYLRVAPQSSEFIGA
Chain of EGFR wildtype (WT) (P00533 25-1210): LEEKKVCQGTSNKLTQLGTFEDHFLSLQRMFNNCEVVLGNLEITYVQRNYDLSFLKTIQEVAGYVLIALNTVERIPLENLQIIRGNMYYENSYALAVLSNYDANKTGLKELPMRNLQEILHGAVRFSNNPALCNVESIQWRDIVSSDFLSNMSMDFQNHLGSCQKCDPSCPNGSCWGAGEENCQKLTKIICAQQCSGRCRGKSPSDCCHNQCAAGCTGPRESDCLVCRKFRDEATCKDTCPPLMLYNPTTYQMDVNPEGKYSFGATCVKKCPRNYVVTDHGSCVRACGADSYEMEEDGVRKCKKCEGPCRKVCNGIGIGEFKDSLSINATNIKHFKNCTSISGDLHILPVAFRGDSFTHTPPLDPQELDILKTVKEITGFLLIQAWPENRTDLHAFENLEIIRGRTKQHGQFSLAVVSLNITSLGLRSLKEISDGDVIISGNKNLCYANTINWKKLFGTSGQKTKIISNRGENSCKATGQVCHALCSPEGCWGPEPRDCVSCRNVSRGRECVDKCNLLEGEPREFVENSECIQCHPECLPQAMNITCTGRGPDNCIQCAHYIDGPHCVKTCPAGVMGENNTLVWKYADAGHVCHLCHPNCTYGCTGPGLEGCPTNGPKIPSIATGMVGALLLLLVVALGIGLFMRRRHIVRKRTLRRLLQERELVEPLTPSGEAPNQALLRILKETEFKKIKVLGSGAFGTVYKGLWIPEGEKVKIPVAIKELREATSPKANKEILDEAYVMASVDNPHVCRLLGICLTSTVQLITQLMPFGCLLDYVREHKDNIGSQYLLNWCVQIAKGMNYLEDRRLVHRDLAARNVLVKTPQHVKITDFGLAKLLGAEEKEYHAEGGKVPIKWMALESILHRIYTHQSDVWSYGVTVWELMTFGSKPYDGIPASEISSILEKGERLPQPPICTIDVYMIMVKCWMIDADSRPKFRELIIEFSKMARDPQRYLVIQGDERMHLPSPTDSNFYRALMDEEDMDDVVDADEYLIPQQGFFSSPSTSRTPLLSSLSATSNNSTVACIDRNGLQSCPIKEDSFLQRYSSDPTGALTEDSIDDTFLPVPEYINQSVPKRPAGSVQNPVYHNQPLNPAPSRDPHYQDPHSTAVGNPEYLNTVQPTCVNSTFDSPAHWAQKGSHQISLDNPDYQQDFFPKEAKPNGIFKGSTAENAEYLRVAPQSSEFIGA
Chain of EGFR L858R/T790M/C797S (P00533 25-1210 T790M/C797S/L858R): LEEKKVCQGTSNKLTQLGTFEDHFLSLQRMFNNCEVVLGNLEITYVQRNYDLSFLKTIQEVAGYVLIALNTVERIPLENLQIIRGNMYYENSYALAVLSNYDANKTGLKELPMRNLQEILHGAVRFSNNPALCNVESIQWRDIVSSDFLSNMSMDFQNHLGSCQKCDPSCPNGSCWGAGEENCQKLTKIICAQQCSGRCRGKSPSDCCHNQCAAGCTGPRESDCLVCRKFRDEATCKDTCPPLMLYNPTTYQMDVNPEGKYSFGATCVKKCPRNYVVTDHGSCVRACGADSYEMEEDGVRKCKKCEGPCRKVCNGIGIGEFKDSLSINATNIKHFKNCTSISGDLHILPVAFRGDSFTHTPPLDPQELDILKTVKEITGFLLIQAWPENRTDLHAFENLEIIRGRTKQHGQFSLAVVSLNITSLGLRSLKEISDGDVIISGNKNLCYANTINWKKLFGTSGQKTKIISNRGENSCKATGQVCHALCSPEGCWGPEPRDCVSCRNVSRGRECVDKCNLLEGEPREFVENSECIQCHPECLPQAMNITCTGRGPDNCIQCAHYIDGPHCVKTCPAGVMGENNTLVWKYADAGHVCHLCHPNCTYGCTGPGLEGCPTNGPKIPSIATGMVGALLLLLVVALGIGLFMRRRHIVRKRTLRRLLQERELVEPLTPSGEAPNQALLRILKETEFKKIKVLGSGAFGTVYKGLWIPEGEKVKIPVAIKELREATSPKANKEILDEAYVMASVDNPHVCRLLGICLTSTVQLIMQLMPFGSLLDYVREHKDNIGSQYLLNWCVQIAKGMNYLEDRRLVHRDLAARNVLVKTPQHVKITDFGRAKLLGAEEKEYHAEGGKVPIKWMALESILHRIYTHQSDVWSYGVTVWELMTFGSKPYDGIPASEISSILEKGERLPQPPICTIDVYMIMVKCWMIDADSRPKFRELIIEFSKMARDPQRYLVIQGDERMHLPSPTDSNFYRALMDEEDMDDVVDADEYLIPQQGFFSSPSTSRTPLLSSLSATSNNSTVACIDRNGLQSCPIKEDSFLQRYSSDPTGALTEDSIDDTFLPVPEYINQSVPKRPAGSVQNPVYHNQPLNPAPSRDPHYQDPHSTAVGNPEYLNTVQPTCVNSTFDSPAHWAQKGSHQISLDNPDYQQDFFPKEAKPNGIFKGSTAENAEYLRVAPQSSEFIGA

Compound	IC50 (EGFR L858R/T790M/C797S; [1]) [nM]	IC50 (EGFR wildtype (WT); IC50 WT (nM), 100 μM ATP) [nM]	IC50 (EGFR Del19/T790M/C797S; [2]) [nM]	IC50 (EGFR Del19/C797S; [3]) [nM]	IC50 (EGFR L858R/C797S; [4]) [nM]	IC50 (EGFR L858R/T790M/C797S; [5]) [nM]	IC50 (EGFR wildtype (WT); [6]) [nM]	IC50 (EGFR Del19/T790M/C797S; [7]) [nM]	IC50 (EGFR Del19/C797S; [8]) [nM]	IC50 (EGFR L858R/C797S; [9]) [nM]	IC50 (EGFR L858R/T790M/C797S; [10]) [nM]	IC50 (EGFR wildtype (WT); [11]) [nM]	IC50 (EGFR Del19/T790M/C797S; [12]) [nM]	IC50 (EGFR Del19/C797S; [13]) [nM]	IC50 (EGFR L858R/C797S; [14]) [nM]	IC50 (EGFR L858R/T790M/C797S; [15]) [nM]	IC50 (EGFR wildtype (WT); [16]) [nM]	IC50 (EGFR Del19/T790M/C797S; [17]) [nM]	IC50 (EGFR Del19/C797S; [18]) [nM]	IC50 (EGFR L858R/C797S; [19]) [nM]
C[C@H](Nc1cc(Nc2ccnc(-c3cnn(S(=O)(=O)C4CC4)c3)n2)ncc1C#Cc1cnn(C)c1)C(C)(C)O [Example 5, (S)-3-((2-((2-(1-(Cyclopropylsulfonyl)-1H-pyrazol-4-yl)pyrimidin-4-yl)amino)-5-((1-methyl-1H-pyrazol-4-yl)ethynyl)pyridin-4-yl)amino)-2-methylbutan-2-ol]	44.3	> 10000	3.8	404	418															
Cn1cc(C#Cc2cnc(Nc3ccnc(-c4cnn(S(=O)(=O)C5CC5)c4)n3)cc2N2CCC(C)(CO)CC2)cn1 [Example 12, (1-(2-((2-(1-(Cyclopropylsulfonyl)-1H-pyrazol-4-yl)pyrimidin-4-yl)amino)-5-((1-methyl-1H-pyrazol-4-yl)ethynyl)pyridin-4-yl)-4-methylpiperidin-4-yl)methanol]	0.6	1100	0.8	1.9	5.1	0.3	6	0.7	1.1	0.7										
O=S(=O)(C1CC1)n1cc(-c2nccc(Nc3cc(N4CC[C@@H](O)C4)c(C#Cc4cnn(CCF)c4)cn3)n2)cn1 [Example 32, (R)-1-(2-((2-(1-(Cyclopropylsulfonyl)-1H-pyrazol-4-yl)pyrimidin-4-yl)amino)-5-((1-(2-fluoroethyl)-1H-pyrazol-4-yl)ethynyl)pyridin-4-yl)pyrrolidin-3-ol]	4.8	> 10000	1.1	11.8	96.9		29.4	1.5		12										
Cn1cc(C#Cc2cnc(Nc3ccnc(-c4cnn(S(=O)(=O)C5CC5)c4)n3)cc2N2CCC(O)C(F)(F)C2)cn1 (stereo not shown) [Example 68, 1-(2-((2-(1-(Cyclopropylsulfonyl)-1H-pyrazol-4-yl)pyrimidin-4-yl)amino)-5-((1-methyl-1H-pyrazol-4-yl)ethynyl)pyridin-4-yl)-3,3-difluoropiperidin-4-ol]	8.9	> 10000	1.3	31	130															
Cn1cc(C#Cc2cnc(Nc3ccnc(-c4cnn(S(=O)(=O)C5CC5)c4)n3)cc2N[C@H]2CCC[C@H](O)C2)cn1 [Example 43, (1 S,3S)-3-((2-((2-(1-(Cyclopropylsulfonyl)-1H-pyrazol-4-yl)pyrimidin-4-yl)amino)-5-((1-methyl-1H-pyrazol-4-yl)ethynyl)pyridin-4-yl)amino)cyclohexan-1-ol]	0.7	> 10000	0.6	1.7	8.9	0.2	20.3	0.5	1.4	1.1										
O=S(=O)(C1CC1)n1cc(-c2nccc(Nc3cc(N4CCCC(CO)C4)c(C#Cc4cnn(C5CCOCC5)c4)cn3)n2)cn1 (stereo not shown) [Example 100, (1-(2-((2-(1-(Cyclopropylsulfonyl)-1H-pyrazol-4-yl)pyrimidin-4-yl)amino)-5-((1-(tetrahydro-2H-pyran-4-yl)-1H-pyrazol-4-yl)ethynyl)pyridin-4-yl)piperidin-3-yl)methanol]	5.6	> 10000	1.6	12.9	73.9	1.3	62	1.7	10.7	7.1										

Continued, values first:

IC50 (EGFR L858R/T790M/C797S; [1]) [nM]	IC50 (EGFR wildtype (WT); IC50 WT (nM), 100 μM ATP) [nM]	IC50 (EGFR Del19/T790M/C797S; [2]) [nM]	IC50 (EGFR Del19/C797S; [3]) [nM]	IC50 (EGFR L858R/C797S; [4]) [nM]	IC50 (EGFR L858R/T790M/C797S; [5]) [nM]	IC50 (EGFR wildtype (WT); [6]) [nM]	IC50 (EGFR Del19/T790M/C797S; [7]) [nM]	IC50 (EGFR Del19/C797S; [8]) [nM]	IC50 (EGFR L858R/C797S; [9]) [nM]	IC50 (EGFR L858R/T790M/C797S; [10]) [nM]	IC50 (EGFR wildtype (WT); [11]) [nM]	IC50 (EGFR Del19/T790M/C797S; [12]) [nM]	IC50 (EGFR Del19/C797S; [13]) [nM]	IC50 (EGFR L858R/C797S; [14]) [nM]	IC50 (EGFR L858R/T790M/C797S; [15]) [nM]	IC50 (EGFR wildtype (WT); [16]) [nM]	IC50 (EGFR Del19/T790M/C797S; [17]) [nM]	IC50 (EGFR Del19/C797S; [18]) [nM]	IC50 (EGFR L858R/C797S; [19]) [nM]	Compound
3.9	5190	0.4	1.8	24.1																O=C(N1CCC(C#Cc2cnc(Nc3ccnc(-c4cnn(S(=O)(=O)C5CC5)c4)n3)cc2NC2CCC(O)CC2)C1)C(F)(F)F (stereo not shown) [Example 414, 1-(3-((6-((2-(1-(Cyclopropylsulfonyl)-1H-pyrazol-4-yl)pyrimidin-4-yl)amino)-4-(((1 s, 4s)-4-hydroxycyclohexyl)amino)pyridin-3-yl)ethynyl)pyrrolidin-1-yl)-2,2,2-trifluoroethan-1-one]
3.1	> 10000	1.9	19.2	68.1						0.7	55.5	2.6	11.9	19.8						O=S(=O)(C1CC1)n1cc(-c2nccc(Nc3cc(N4CCCC(O)C4)c(C#Cc4cnn(CC(F)(F)F)c4)cn3)n2)cn1 (stereo not shown) [Example 343, 1-(2-((2-(1-(Cyclopropylsulfonyl)-1H-pyrazol-4-yl)pyrimidin-4-yl)amino)-5-((1-(2,2,2-trifluoroethyl)-1H-pyrazol-4-yl)ethynyl)pyridin-4-yl)piperidin-3-ol]
1.5	> 10000	2.9	97.4	198											0.3	46.1	5.6	35.8	16.6	CN(C)S(=O)(=O)n1cc(-c2nccc(Nc3cc(N4CCC(C)(CO)CC4)c(C#Cc4cnn(C(F)(F)F)c4)cn3)n2)cn1 [Example 273, 4-(4-((4-(4-(Hydroxymethyl)-4-methylpiperidin-1-yl)-5-((1-(trifluoromethyl)-1H-pyrazol-4-yl)ethynyl)pyridin-2-yl)amino)pyrimidin-2-yl)-N, N-dimethyl-1H-pyrazole-1-sulfonamide]
0.8	5670	1	10.5	44																CN1CCC2(CC1)CCN(c1cc(Nc3ccnc(-c4cnn(S(=O)(=O)C5CC5)c4)n3)ncc1C#Cc1cnn(CC3CC3)c1)CC2 [Example 320, N-(5-((1-(Cyclopropylmethyl)-1H-pyrazol-4-yl)ethynyl)-4-(9-methyl-3,9-diazaspiro[5.5]undecan-3-yl)pyridin-2-yl)-2-(1-(cyclopropylsulfonyl)-1H-pyrazol-4-yl)pyrimidin-4-amine]
22.5	> 10000	19.3	35.6	1570						26.1	310	34	12.8	17.9						CS(=O)(=O)N1CCC(C#Cc2cnc(Nc3ccnc(-c4cnn(S(=O)(=O)C5CC5)c4)n3)cc2NCC2CCC(CO)CC2)C1 (stereo not shown) [Example 400, ((1r,4r)-4-(((2-((2-(1-(Cyclopropylsulfonyl)-1H-pyrazol-4-yl)pyrimidin-4-yl)amino)-5-((1-(methylsulfonyl)pyrrolidin-3-yl)ethynyl)pyridin-4-yl)amino)methyl)cyclohexyl)methanol]
0.5	8670	0.1	1.7	42.3											0.1	18.7	0.1	1.3	8.1	C#Cc1cnc(Nc2ccnc(-c3cnn(S(=O)(=O)C4CC4)c3)n2)cc1N1CCC(C)(CO)CC1 [Example 247, (1-(2-((2-(1-(Cyclopropylsulfonyl)-1H-pyrazol-4-yl)pyrimidin-4-yl)amino)-5-ethynylpyridin-4-yl)-4-methylpiperidin-4-yl)methanol]
0.5	5290	0.7	1.3	16.5											0.1	7.5	0.3	0.8	1.5	CC1(CO)CCN(c2cc(Nc3ccnc(-c4cnn(S(=O)(=O)C5CC5)c4)n3)ncc2C#CCCF)CC1 [Example 276, (1-(2-((2-(1-(Cyclopropylsulfonyl)-1H-pyrazol-4-yl)pyrimidin-4-yl)amino)-5-(4-fluorobut-1-yn-1-yl)pyridin-4-yl)-4-methylpiperidin-4-yl)methanol]
0.7	6420	0.3	3.3	85.5						0.2	5.8	0.3	1.7	1.9						CC1OCCC1C#Cc1cnc(Nc2ccnc(-c3cnn(S(=O)(=O)C4CC4)c3)n2)cc1N1CCC(C)(CO)CC1 (stereo not shown) [Example 438, (1-(2-((2-(1-(Cyclopropylsulfonyl)-1H-pyrazol-4-yl)pyrimidin-4-yl)amino)-5-((2-methyltetrahydrofuran-3-yl)ethynyl)pyridin-4-yl)-4-methylpiperidin-4-yl)methanol]
